“Also recorded” adds a separate entry of the source.
Experiments:
E. coli ATCC 25922 [1] = experiment: Kirby-Bauer disk test (zone of inhibition); format: cell-based; details: amount 17.5 nmol per disk, HFBA salts except 1* (sulphate)
Protocol: Antibiotic disks preparation. Paper disks (6 mm diameter, BBL Microbiology Systems) were wetted through with 20, 25, 30 and 35 μL of a solution containing the antibiotic sample at a concentration of 0.5 nmol/μL. The wet disks were dried in a desiccator overnight, and used the next day.
Culture preparation. A colony picked from a freshly made plate of the bacteria strain E. coli ATCC 25922 was used to inoculate 20 mL of Mueller-Hinton broth and the obtained culture was grown overnight at 37° C. and 250 RPM shaking.
Kirby-Bauer test procedure. A new culture was made adding 1 mL of overnight culture in 99 mL of fresh Mueller-Hinton broth. The culture was grown at 37° C. and 250 RPM shaking until it reached an OD600 of 0.132 (0.5 McFarland) and a series of Mueller-Ilinton-Agar plates preheated at 37° C. were inoculated spreading 200 μL of that culture with sterile cotton. The plates were then dried for 30 minutes. Then on each plate 3 or 4 antibiotic paper disks were placed. The plates were incubated overnight at 37° C. and subsequently the diameter of the inhibition growth zone was measured.

E. coli ATCC 25922 [2] = experiment: Minimum Inhibitory Concentration (MIC) test; format: cell-based; details: for MIC: E. coli ATCC 25922, Mueller-Hinton broth, overnight 37° C., HFBA salts except 1* (sulphate); for antimicrobial activity against E. coli ATCC 25922 (in words): Kirby-Bauer Disk Test and MIC, summary statement
Protocol: All test solutions contained 40 nmol of antibiotic. After drying, the samples were resuspended in 100 μL of Mueller-Hinton broth. Each solution of antibiotic in broth media was pipetted in the first lane of a 96 well plate (volume of well 500 μL). The remaining lanes were filled with 50 μL of E. coli ATCC 25922 culture with an OD600 of 0.264. Series of 2-fold dilution were made removing from the first lane 50 μL of the antibiotic solution and resuspending it with the culture contained in the next well. At the end, all wells were filled with 100 μL of E. coli ATCC 25922 culture in Mueller-Hinton with an OD600 of 0.132 (0.5 McFarland) and the appropriate amount of antibiotic. The 96-well plates were incubated overnight at 37° C. and 350 RPM shaking.

Row | Compound | Diameter (zones of inhibition as determined by Kirby-Bauer disk method) (E. coli ATCC 25922 [1]) [mm] | MIC (E. coli ATCC 25922 [2]) [µM] | MIC (E. coli ATCC 25922 [2]; Escherichia coli, ATCC25922) [µM] | antimicrobial activity against E. coli ATCC 25922 (in words) (E. coli ATCC 25922 [2])
1 | NCC1OC(OC2C(CO)OC(OC3C(O)C(N)CC(N)C3OC3OC(CN)C(O)C(O)C3N)C2O)C(N)C(O)C1O.O=C(O)C(F)(F)C(F)(F)C(F)(F)F.O=C(O)C(F)(F)C(F)(F)C(F)(F)F.O=C(O)C(F)(F)C(F)(F)C(F)(F)F.O=C(O)C(F)(F)C(F)(F)C(F)(F)F.O=C(O)C(F)(F)C(F)(F)C(F)(F)F.O=C(O)C(F)(F)C(F)(F)C(F)(F)F (centres unmarked) [1^, neomycin B×6 HFBA, reference compound] | 16.1 | 3.1 |  | 
2 | CC(C)C(=O)NCC1O[C@H](OC2C(O)[C@H](OC3C(O)[C@H](N)CC(N)[C@H]3O[C@H]3OC(CN)[C@@H](O)C(O)C3N)O[C@@H]2CO)C(N)C(O)[C@@H]1O (some centres unmarked) [compound 6] | 11.5 |  | 12.5 | still highly active; also recorded: same biological activity as paromomycin 2
3 | CC(=O)NCC1O[C@H](OC2C(O)[C@H](OC3C(O)[C@H](N)CC(N)[C@H]3O[C@H]3OC(CN)[C@@H](O)C(O)C3N)O[C@@H]2CO)C(N)C(O)[C@@H]1O (some centres unmarked) [5a, N^6(VI)-acetyl neomycin B] | 13.9 |  | 6.3 | still highly active
4 | neomycin B [compound 1, reference compound] |  | 3.1 |  | 
5 | NC[C@@H]1O[C@H](O[C@H]2[C@@H](O)[C@H](O[C@@H]3[C@@H](O)[C@H](N)C[C@H](N)[C@H]3O[C@H]3O[C@H](CO)[C@@H](O)[C@H](O)[C@H]3N)O[C@@H]2CO)[C@H](N)[C@@H](O)[C@@H]1O [2^, paromomycin, reference compound] | 13.2 |  | 12.5 | 
